Source: BindingDB's records for doi:10.1016/j.bmcl.2004.04.020 (Texas Tech University Health Sciences Center, 2004)

Legend:
[1] = Inhibition of [3H]choline brain uptake through choline transporter was determined in situ brain perfusion studies in Male Fischer-344 rats
[2] = as above; remark: listed apart in the source

With `C[N+](C)(C)CCCCO` as the compound, how does the Ki [1] read?
The Ki was greater than 10000 µM.

For `C[N+](C)(C)CCCO`, which Ki [1] is on record?
The Ki was 162 µM.

With `CC[N+](CC)(CC)CCO` as the compound, how does the Ki [1] read?
The Ki was 1900 µM.

With `CCN1CC=C(C(C)=O)CC1` [1-(1-Ethyl-1,2,3,6-tetrahydro-pyridin-4-yl)-ethanone] as the compound, how does the Ki [1] read?
Its Ki is greater than 10000 µM.

Which Ki [1] does the source give for `CC(=O)C1=CCC(CCc2ccccc2)CC1` (configuration not stated) [1-(4-Phenethyl-cyclohex-1-enyl)-ethanone] here?
Its Ki is 495 µM.

Which Ki [1] does the source give for `CCCCCCCCN1CCCCC1` [1-Octyl-piperidine] here?
The Ki was 32 µM.

Which Ki [1] does the source give for `CN(C)C1CCCCC1O` (configuration not stated) [2-Dimethylamino-cyclohexanol] here?
Its Ki is greater than 10000 µM.

With `CSCCO` [2-Methylsulfanyl-ethanol] as the compound, how does the Ki [1] read?
The Ki was greater than 10000 µM.

With `OCCCN1CCN(Cc2cccnc2)CC1` [3-(4-Pyridin-3-ylmethyl-piperazin-1-yl)-propan-1-ol] as the compound, how does the Ki [1] read?
Its Ki is greater than 10000 µM.

For `CCCCCCCC[N+](C)(C)CCO` [(2-Hydroxy-ethyl)-dimethyl-octyl-ammonium], which Ki [2] is on record?
The Ki was 2.1 µM.

For `C[N+](C)(CCO)c1ccccc1` [(2-Hydroxy-ethyl)-dimethyl-phenyl-ammonium], which Ki [1] is on record?
The Ki was greater than 10000 µM.

Which Ki [1] does the source give for `CCC[N+](C)(C)CCO` [(2-Hydroxy-ethyl)-dimethyl-propyl-ammonium] here?
Its Ki is 190 µM.

For `C[N+](C)(CCO)c1ccc(F)cc1` [(4-Fluoro-phenyl)-(2-hydroxy-ethyl)-dimethyl-ammonium], which Ki [1] is on record?
The Ki was 737 µM.

With `CCCC[N+](C)(C)CCO` [Butyl-(2-hydroxy-ethyl)-dimethyl-ammonium] as the compound, how does the Ki [1] read?
Its Ki is 40 µM.

For `CC[N+](C)(C)CCO` [Ethyl-(2-hydroxy-ethyl)-dimethyl-ammonium], which Ki [1] is on record?
Its Ki is 94 µM.

Which Ki [1] does the source give for `CC[N+](C)(C)C` [Ethyl-trimethyl-ammonium] here?
The Ki was 4700 µM.

For `CC(O)C[N+](C)(C)C` (stereo not drawn) [beta-methylcholine], which Ki [1] is on record?
Its Ki is 200 µM.
